How the values were obtained:
[1] = test system: Plasmodium yoelii nigeriensis; test: Antimalarial activity against multidrug-resistant Plasmodium yoelii nigeriensis infected Swiss mice (Mus musculus) at 12 mg/kg peroral dose over 4 days; type: functional; details: route oral
[2] = Lipophilicity, Log P of the compound; type: physicochemical; details: octanol/water
[3] = test system: Plasmodium yoelii nigeriensis; test: Antimalarial activity as cures against multidrug-resistant Plasmodium yoelii nigeriensis infected Swiss mice (Mus musculus) at 48 mg/kg peroral dose over 4 days; type: functional; details: route oral
[4] = test system: Plasmodium yoelii nigeriensis; test: Antimalarial activity against multidrug-resistant Plasmodium yoelii nigeriensis infected Swiss mice (Mus musculus) at 48 mg/kg peroral dose over 4 days; type: functional; details: route oral
[5] = Protection of Swiss mice (Mus musculus) infected with Plasmodium yoelii nigeriensis at 48 mg/kg, perorally for 4 days; type: functional; details: route oral
[6] = test system: Plasmodium yoelii nigeriensis; test: Antimalarial activity against multidrug-resistant Plasmodium yoelii nigeriensis infected Swiss mice (Mus musculus) at 6 mg/kg peroral dose over 4 days; type: functional; details: route oral

| Compound | Activity [1] [%] | logP [2] | Activity [3] [%] | Activity [4] [%] | Activity [5] [%] | Activity [6] [%] |
| --- | --- | --- | --- | --- | --- | --- |
| C[C@H]1[C@H](OCC2c3ccccc3-c3ccccc32)O[C@@H]2C[C@@]3(C)CC[C@H]4[C@H](C)CC[C@@H]1[C@@]24OO3 | 100 | 6.75 | 100 | 100 | – | – |
| C[C@H]1[C@@H](OCCC2C3CC4CC(C3)CC2C4)O[C@@H]2O[C@@]3(C)CC[C@H]4[C@H](C)CC[C@@H]1[C@@]24OO3 (stereo not given in full) | – | 6.15 | 100 | 100 | 100 | – |
| CCO[C@@H]1O[C@@H]2O[C@]3(C)CC[C@H]4[C@H](C)CC[C@@H]([C@H]1C)[C@@]24OO3 [ALPHA-ARTEETHER] | – | 3.84 | 100 | 100 | – | – |
| C[C@H]1[C@@H](OCc2ccc(-c3ccccc3)cc2)O[C@@H]2O[C@@]3(C)CC[C@H]4[C@H](C)CC[C@@H]1[C@@]24OO3 | 100 | 6.91 | 100 | 100 | 100 | – |
| C[C@@H]1CC[C@H]2[C@@H](C)C(OCC34CC5CC(CC(C5)C3)C4)O[C@@H]3O[C@@]4(C)CC[C@@H]1[C@]32OO4 (stereo not given in full) | 100 | 6.02 | 100 | 100 | 100 | – |
| C[C@H]1[C@H](OCCOc2ccccc2-c2ccccc2)O[C@@H]2C[C@@]3(C)CC[C@H]4[C@H](C)CC[C@@H]1[C@@]24OO3 | 100 | 6.85 | 100 | 100 | – | 64.44 |
| C[C@H]1[C@H](OCCOc2ccc(-c3ccccc3)cc2)O[C@@H]2C[C@@]3(C)CC[C@H]4[C@H](C)CC[C@@H]1[C@@]24OO3 | 100 | 6.85 | 100 | 100 | – | 44.33 |
| C[C@@H]1CC[C@H]2[C@@H](C)C(OCCC3c4ccccc4-c4ccccc43)O[C@@H]3C[C@@]4(C)CC[C@@H]1[C@]32OO4 (stereo not given in full) | 100 | 7.1 | 100 | 100 | 100 | – |
| C[C@H]1[C@H](OCc2ccc(-c3ccccc3)cc2)O[C@@H]2O[C@@]3(C)CC[C@H]4[C@H](C)CC[C@@H]1[C@@]24OO3 | 100 | 6.91 | 100 | 100 | – | 86.33 |
| C[C@H]1[C@@H](OCCC23CC4CC(CC(C4)C2)C3)O[C@@H]2O[C@@]3(C)CC[C@H]4[C@H](C)CC[C@@H]1[C@@]24OO3 | – | 6.29 | 100 | 100 | 60 | – |
| C[C@H]1[C@@H](OCCOc2ccc(-c3ccccc3)cc2)O[C@@H]2C[C@@]3(C)CC[C@H]4[C@H](C)CC[C@@H]1[C@@]24OO3 | 100 | 6.85 | 100 | 100 | 100 | – |
| C[C@H]1[C@H](OCCC2C3CC4CC(C3)CC2C4)O[C@@H]2O[C@@]3(C)CC[C@H]4[C@H](C)CC[C@@H]1[C@@]24OO3 (stereo not given in full) | 100 | 6.15 | 100 | 100 | – | – |
| C[C@H]1[C@@H](OCCc2ccc(-c3ccccc3)cc2)O[C@@H]2O[C@@]3(C)CC[C@H]4[C@H](C)CC[C@@H]1[C@@]24OO3 | 100 | 7.19 | 100 | 100 | 100 | – |
| C[C@H]1[C@@H](OCCOc2ccccc2-c2ccccc2)O[C@@H]2C[C@@]3(C)CC[C@H]4[C@H](C)CC[C@@H]1[C@@]24OO3 | – | 6.85 | 100 | 100 | – | – |
| CCO[C@H]1O[C@@H]2O[C@@]3(C)CC[C@H]4[C@H](C)CC[C@@H]([C@H]1C)[C@@]24OO3 [ARTEMOTIL] | – | 3.84 | 100 | 100 | – | – |
| C[C@H]1[C@@H](OCC2c3ccccc3-c3ccccc32)O[C@@H]2C[C@@]3(C)CC[C@H]4[C@H](C)CC[C@@H]1[C@@]24OO3 | 100 | 6.75 | 100 | 100 | – | 92.95 |
| C[C@H]1[C@H](OCCC23CC4CC(CC(C4)C2)C3)O[C@@H]2O[C@@]3(C)CC[C@H]4[C@H](C)CC[C@@H]1[C@@]24OO3 | 97.43 | 6.29 | 100 | 100 | – | 61.25 |
| C[C@@H]1CC[C@H]2[C@@H](C)C(OC3C4CC5CC(C4)CC3C5)O[C@@H]3O[C@@]4(C)CC[C@@H]1[C@]32OO4 (stereo not given in full) | 100 | 5.51 | 100 | 100 | 100 | – |
| C[C@H]1[C@@H](OCc2ccccc2-c2ccccc2)O[C@@H]2O[C@@]3(C)CC[C@H]4[C@H](C)CC[C@@H]1[C@@]24OO3 | 100 | 6.91 | 100 | 100 | 100 | – |

Source: ChEMBL document CHEMBL1137369, “New orally active derivatives of artemisinin with high efficacy against multidrug-resistant malaria in mice” (J Med Chem, 2006)
